Measurements from patent publication US10287617B2, “Methods for in vitro—in vivo efficacy determination” (COLORADO STATE UNIVERSITY RESEARCH FOUNDATION, priority 2014, dated 2019).

Tests used:
[1] = test system: Mycobacteria tuberculosis; assay: MIC and drug response curve type (Tables A and B); assay type: cell-based, Mycobacterium tuberculosis; details: for Curve: drug response curve type; for MIC: in µg/mL
Protocol: A drug concentration response curve can be generated by graphing the log10 drug concentrations (μg/mL) against the difference in growth between the drug-treated wells and control wells. See FIG. 3C, and FIG. 5 (entries for SB-P23D8 and SB-P26D9). A NREBA is indicative of bacteriostatic activity above the MIC.
(§1) Further analysis using the methods described herein was performed on the compounds found in Tables A and B (bold font compounds are shown in FIG. 11) resulting in the data found therein.
MIC values were determined for the benzimidazoles using a modified 96-well microplate Alamar Blue (resazurin) assay (MABA) (see Kumar et al., J. Med. Chem. 2011; 54:374-381; Collins and Franzblau, Antimicrob. Agents Chemother. 1997; 41:1004-1009). Dose response curves were generated from the MABA assay for compounds by graphing the log10 drug concentrations against the difference in growth between the drug-treated wells and control wells using GraphPad Prism Version 5.0d for Mac OS X (GraphPad Software, San Diego Calif., USA, www.graphpad.com). For time dose studies, bacterial growth in the presence of compound was monitored by the O.D. 600 nm. […] The values were plotted against time using GraphPad Prism Version 5.0d for Mac OS X (GraphPad Software, San Diego Calif., USA, www.graphpad.com).

[2] = test system: M. tuberculosis H37Rv; assay: MIC / dose response by modified microplate Alamar Blue assay (MABA); assay type: cell-based, Mycobacterium tuberculosis
[3] = test system: M. tuberculosis; assay: Benzimidazoles activity tested in animals (animal models of infection, Table A); assay type: in vivo, mouse; details: for Efficacy Lung / Efficacy Spleen: Table A
Protocol: as §1
Compound efficacy was assessed in two murine models of infection based on the short term model described previously (Lenaerts et al., Antimicrob. Agents Chemother. 2003; 47:783-785). All aerosol infections were performed using a Middlebrook aerosol generation devise (Glas-Col, Terre Haute, Ind.).

[4] = test system: M. tuberculosis H37Rv; assay: Growth inhibition / time dose curves (OD600 and CFU); assay type: cell-based, Mycobacterium tuberculosis; details: O.D. 600 nm growth curves, 5 days
[5] = test system: M. tuberculosis H37Rv; assay type: cell-based
[6] = test system: non-replicating M. tuberculosis H37Rv; assay: Low oxygen study, non-replicating bacilli; assay type: cell-based, Mycobacterium tuberculosis
Protocol: The low oxygen studies were performed similar to those described previously (Lenaerts et al., Antimicrob. Agents Chemother. 2005; 49:2294-2301). Briefly, M. tuberculosis H37Rv were diluted to an O.D. 600 nm of 0.003 in 7H9 media containing Methylene Blue (1.5 μg/mL) and were grown in 16×125 mm Hungate tubes with rubber septa (VWR cat#89167-170). The tubes, with 11 mL of the diluted cultures were incubated at 37° C. under agitation (150 rpm). […] One week after the reduction of methylene blue, approximately 28 days from the start, drug treatment was initiated with the test and control drugs. Prior to treatment, an aliquot was removed and plated for a CFU count to serve as a control. Isoniazid and metronidazole were used in the studies as comparative controls.
Recovery of aliquots for plating and the addition of drugs were conducted through septa using syringes to maintain the low-oxygen conditions. Ninety-six hours post-treatment, 1 mL of the culture was removed from the oxygen depleted cultures, the aliquot was serial diluted and the dilutions were plated. Log10 CFUs were calculated for the different treatments and concentrations. Percentage growth reduction from the controls was calculated and reported.

**Q.** Which Curve ([1]; Table B) does the source give for `CCC(CC)c1nc2cc(NC(=O)c3ccccc3OC)c(N(C)C)cc2[nH]1` [SB-P27C7] here?
**A.** Zonal

**Q.** And the MIC ([1]; Table B)?
**A.** 6.25

**Q.** How did the “drug concentration response curve (kill curve) type” value ([2]; FIG. 3) turn out when `CCN(CC)c1cc2[nH]c(C3CCCCC3)nc2cc1NC(=O)c1ccc(OC)cc1` [SB-P1G10] was run?
**A.** narrow range of concentrations of effective bactericidal activity (NREBA) kill curve

**Q.** And the MIC range ([2]; H37Rv and Erdman strains)?
**A.** 3 to 6.25 µg/mL

**Q.** And the “concentration range of bactericidal activity” value ([2]; drug concentration response curve)?
**A.** 0.5-4 fold of MIC

**Q.** What about the Curve ([1]; Table A) of the same compound?
**A.** Zonal

**Q.** And the MIC ([1]; Table A)?
**A.** 3.13-6.25

**Q.** And the “Efficacy Lung” value [3]?
**A.** No

**Q.** What about the “Efficacy Spleen” value [3] of the same compound?
**A.** No

**Q.** And the “bacterial load in the lungs or spleen” value ([3]; any animal model of infection conducted)?
**A.** never reduced the bacterial load

**Q.** What about the “concentrations at which bacterial growth was inhibited” value [4] of the same compound?
**A.** none of the concentrations tested

**Q.** Which Curve ([1]; Table B) does the source give for `CCN(CC)c1cc2[nH]c(C3CCCCC3)nc2cc1NC(=O)c1ccc(OC)cc1.O=C(O)/C=C/C(=O)O` [SB-P1G10-FUM] here?
**A.** Zonal

**Q.** And the MIC ([1]; Table B)?
**A.** 6.25

**Q.** For `CC(C)(C)c1ccc(C(=O)Nc2cc3nc(C4CCCCC4)[nH]c3cc2SCc2ccccc2)cc1` [SB-P26H8], which Curve ([1]; Table B) is on record?
**A.** Zonal

**Q.** What about the MIC ([1]; Table B) of the same compound?
**A.** 25

**Q.** What does the source list for `CO[C@H]1/C=C/O[C@@]2(C)Oc3c(C)c(O)c4c(O)c(c(/C=N/N5CCN(C)CC5)c(O)c4c3C2=O)NC(=O)/C(C)=C\C=C\[C@H](C)[C@H](O)[C@@H](C)[C@@H](O)[C@@H](C)[C@H](OC(C)=O)[C@@H]1C` [Rifampicin, reference compound]?
**A.** MIC In Combination ([5]; SB-P8B2 with rifampicin): 0.5 × MIC; MIC Alone ([5]; drug alone): 1 × MIC

**Q.** With `CCCOCC(=O)Nc1cc2nc(C3CCCCC3)[nH]c2cc1N1CCCC1` [SB-P6B-A3] as the compound, how does the Curve ([1]; Table B) read?
**A.** Zonal

**Q.** And the MIC ([1]; Table B)?
**A.** 12.5

**Q.** For `CCc1ccc(C(=O)Nc2cc3nc(C4CCCCC4)[nH]c3cc2N(CC)CC)cc1` [SB-P1G-A17], which Curve ([1]; Table B) is on record?
**A.** Zonal

**Q.** And the MIC ([1]; Table B)?
**A.** 1.56

**Q.** Which Curve ([1]; Table B) does the source give for `C=Cc1cccc(C(=O)Nc2cc3nc(C4CCCCC4)[nH]c3cc2N(CC)CC)c1` [SB-P1G-A21] here?
**A.** Zonal

**Q.** What about the MIC ([1]; Table B) of the same compound?
**A.** 25

**Q.** With `CN(C)c1cc2[nH]c(C3CCCCC3)nc2cc1NC(=O)OCc1ccccc1` [SB-P17G-C4] as the compound, how does the Curve ([1]; Table B) read?
**A.** Zonal

**Q.** What about the MIC ([1]; Table B) of the same compound?
**A.** 12.5

**Q.** What does the source list for `COc1ccc(C(=O)Nc2cc3nc(C4CCCCC4)[nH]c3cc2N(C)C)cc1` [SB-P17G-A16]?
**A.** Curve ([1]; Table A): Sigmoid; MIC ([1]; Table A): .31; Efficacy Lung [3]: Yes; Efficacy Spleen [3]: Yes

**Q.** `CCN(CC)c1cc2[nH]c(C3CCCCC3)nc2cc1NC(=O)c1cnccn1` [SB-P1G-A12] was tested. Which Curve ([1]; Table B) did it give?
**A.** Zonal

**Q.** What about the MIC ([1]; Table B) of the same compound?
**A.** 12.5

**Q.** For `O=C(Nc1cc2nc(C3CCCCC3)[nH]c2cc1N1CCCC1)OCc1ccccc1` [SBP8B4], which Curve ([1]; Table A) is on record?
**A.** Sigmoid

**Q.** And the MIC ([1]; Table A)?
**A.** 3.13

**Q.** What about the “Efficacy Lung” value [3] of the same compound?
**A.** None

**Q.** What about the “Efficacy Spleen” value [3] of the same compound?
**A.** None

**Q.** For `Cc1ccc(C(=O)Nc2cc3nc(Cc4ccccc4)[nH]c3cc2N(C)C)cc1` [SB-P27A9], which Curve ([1]; Table B) is on record?
**A.** Zonal

**Q.** And the MIC ([1]; Table B)?
**A.** 12.5

**Q.** Which results are given for `CCN(CC)c1cc2[nH]c(C3CCCCC3)nc2cc1NC(=O)c1ccc(N(C)C)cc1` [SB-P1G-A11]?
**A.** Curve ([1]; Table B): Zonal; MIC ([1]; Table B): 12.5

**Q.** How did the Curve ([1]; Table B) turn out when `Cc1ccc(C(=O)Nc2cc3nc(C4CCCCC4)[nH]c3cc2Sc2ccccc2)cc1` [SB-P26F9] was run?
**A.** Zonal

**Q.** And the MIC ([1]; Table B)?
**A.** 6.25

**Q.** How did the Curve ([1]; Table B) turn out when `CC(C)(C)c1ccc(C(=O)Nc2cc3nc(C4CCCCC4)[nH]c3cc2Sc2ccccc2)cc1` [SB-P26F8] was run?
**A.** Zonal

**Q.** And the MIC ([1]; Table B)?
**A.** 25

**Q.** How did the Curve ([1]; Table B) turn out when `COc1ccc(C(=O)Nc2cc3nc(C4CCCCC4)[nH]c3cc2Oc2ccc(F)cc2)cc1` [SB-P23D8] was run?
**A.** Zonal

**Q.** And the MIC ([1]; Table B)?
**A.** 3.13

**Q.** `CCCN(CCC)c1cc2[nH]c(C3CCCCC3)nc2cc1NC(=O)OCCOCC` [SB-oli-C8] was tested. Which Curve ([1]; Table B) did it give?
**A.** Zonal

**Q.** And the MIC ([1]; Table B)?
**A.** 6.25

**Q.** How did the “Log10 (CFU+/−SD)” value ([6]; 96 h post-treatment) turn out when `Cc1ncc([N+](=O)[O-])n1CCO` [Metronidazole, reference compound] was run?
**A.** 4.83 ± 0.06

**Q.** And the “% Growth Reduction” value ([6]; benzimidazoles at 4 μg/mL)?
**A.** 70%

**Q.** And the “Log10 (CFU) Reduction” value ([6]; vs control)?
**A.** 0.52

**Q.** `Cc1ccc(C(=O)Nc2cc3nc(C4CCCCC4)[nH]c3cc2Oc2ccc(F)cc2)cc1` [SB-P26D9] was tested. Which Curve ([1]; Table B) did it give?
**A.** Zonal

**Q.** And the MIC ([1]; Table B)?
**A.** 1.56
